# Values quoted from earlier work in patent US10481151B2, “Isolation of pulmonary arterial endothelial cells from patients with pulmonary vascular disease and uses thereof” (Allegheny-Singer Research Institute, priority 2012, dated 2019).
# Settings: short half life, so the drug must be administered intravenously over a prolonged time frame
row,half life,Compound
1,about 6 minutes,CCCCC[C@H](O)CC[C@@H]1[C@H]2Cc3cccc(OCC(=O)O)c3C[C@H]2C[C@H]1O [treprostinil]
2,about 6 minutes,CCCCC[C@H](O)/C=C/[C@@H]1[C@H]2C/C(=C/CCCC(=O)O)O[C@H]2C[C@H]1O [epoprostenol]
3,about 6 minutes,CC#CCC(C)[C@H](O)/C=C/[C@@H]1[C@H]2C/C(=C/CCCC(=O)O)C[C@H]2C[C@H]1O (stereo partly drawn) [iloprost]
